Experimental data reported in patent publication US8173133B2, “Acyl pseudodipeptides which carry a functionalized auxiliary arm” (OM Pharma, priority 1999, dated 2012).
Values joined by “and” are separate entries in the source; they are usually repeats but may differ in a detail not shown here. Identical values can stand only once.

Tests used:
[1] = tested on: HIV-1 IIIB; assay: anti-HIV activity in MT-4 cells (MTT), HIV-1 IIIB; assay type: cell-based
Experimental: (§1) T MT-4 lymphocyte cell line which had been transformed into a continuous cell line by an HTLV infection, a virus associated with one form of leukemia, was used to test the antiviral activity (anti-HIV) of AZT- and d4T-conjugated compounds according to the invention, respectively. A characteristic feature of such cells is lack of survival following an HIV infection. The test is based on protection provided by the product (like AZT) against this viral destructive effect. Products were tested in serially diluted solutions in a 96-well plate. In the upper portion of the microplate, products were tested by incubation at various concentrations with cells and virus (in triplicate), so as to determine the concentration of product which affords cell protection against the viral destructive effect. IC50 of the product is taken as the concentration where a 50% loss of viable cell count is recorded. Viable cell count was done with MTT, a yellow tetrazolium compound which undergoes enzymatic reduction (at the mitochondrial level in viable cells) into a purple colored formazan compound. Wells containing viable cells are purple in colour, whereas dead cells give a persistent yellow color. Measurement of optical density (O.D.) allows this effect to be quantified.

[2] = tested on: MT-4 cells; assay: cytotoxicity on virus-free MT-4 cells (MTT); assay type: cell-based
Experimental: Cytotoxicity of a given product is assessed in the same manner in the lower portion of the plate where the test is conducted by incubating serially diluted products over virus-free cells, to thereby determine the toxic effect of products on cells. The result is given as CC50, i.e. the concentration at which 50% of cells are dead due to product toxicity. Selectivity (selectivity index, SI) of a given product is defined as a CC50/IC50 ratio. This parameter is of great importance since the selectivity index of a fairly efficient product is high.

[3] = tested on: HIV-2 ROD; assay: anti-HIV activity in MT-4 cells (MTT), HIV-2 ROD; assay type: cell-based
Experimental: as §1

[4] = tested on: Leishmania LmCPb antigen; assay: Leishmania LmCPb immunization: IL-4 and γ IFN in lymph node cell supernatant (ELISA); assay type: in vivo, CBA mice; conditions: pools a and b
Experimental: (§2) CBA mice were administered through the tail a single subcutaneous injection (100 μl) of Leishmania parasite LmCPb antigen (3 μg per mouse)±adjuvant. […] Eleven days after injection, inguinal and periaortic lymph node cells (2 groups of 3 mice each) were cultured in triplicate in presence of purified LmCPb antigen or whole extract of the parasite (amastigote). At day 4, a supernatant sample is withdrawn and stored at −20° C. for IL-4 and γ IFN assay. Finally, tritiated thymidine (^3H-TdR) is added to the cultures to measure the proliferation reaction.
(§3) Cytokine assay is carried out by a sandwich ELISA assay (OptEIA®) kits for γ IFN and IL-4, BD, PharMingen, Basel, Switzerland) and the proliferation response is determined by measuring thymidine take-up (^3H-TdR). ^3H-TdR take-up given in cpm as the arithmetic mean value±standard deviation ([…] of 3 mice each) and IL-4 concentration given in pg/ml are individually reported for each pool of 3 mice as the arithmetic mean of two measurements (cytokine assay).
(§4) An LmCPb stock solution is prepared at a concentration of 150 μg/ml in PBS
(§5) Adjuvants: The stock solution of OM-294-MP-AC is prepared at a concentration of 0.9 mg/ml in water for injection, with addition of 0.1% triethanolamine.
(§6) Antigen-adjuvant mixture: Adjuvant preparation (4 volumes), which had been adjusted to an adequate final concentration in sterile PBS, is mixed just prior to injection with the antigen stock solution (1 volume).

[5] = tested on: Spleenic cells; assay: murine spleenic cell proliferation (3H-TdR take-up); assay type: cell-based, CBA mice; conditions: for increase of thymidine take-up: one day of culture
Experimental: Cell proliferation response is assessed by measuring triturated thymidine (^3H-TdR) take-up after 1 or 2 days of culture. Values reported in the table stand for the arithmetic mean±standard deviation of 4 cultures.

[6] = tested on: MxA protein; assay: MxA protein induction in dendritic cells (Western blot); assay type: cell-based, human; conditions: 1 μg/ml; after 24 hr and 48 hours; FIGS. 77, 78
Experimental: The ability of products of the invention to induce production of antiviral MxA protein by predendritic cells has been assessed. MxA production by cells was measured after an SDS-PAGE electrophoretic separation by a Western Blot assay
Extraction and analysis of protein was conducted as follows: cells were harvested, then washed 3 times with PBS (phosphate buffered saline) and lyzed with a 100 Mm Tris-HCl buffer, 150 mM NaCl, 5 mM EDTA, 1% Triton-100 containing 1 mM PMSF (phenylmethylsulphonyl fluoride) and 1 μ/ml of pepstatin as protease inhibitors. Lysis was carried out at a density of 10^6 cells for 100 μl of (5×) buffer containing 60 mM Tris-HCl (pH 6.8), 10% glycerol, 2% SDS, 14.4 mM 2-mercaptoethanol and 0.1% bromophenol). Samples were heated up to 95° C. for 5 min. in sealed Eppendorf tubes. Electrophoresis was performed on a 10 cm×10 cm 12% acrylamide minigel by running a sample having the same number of cells. Migration was effected with the following buffer: 25 mM Tris, 192 mM glycine, 0.1% SDS, pH 8.3. […]
Non specific bonding sites on the membrane were blocked with 5% skimmed milk in TBS (10 mM Tris-HCl, 150 Mm NaCl, pH 7.4) and allowing to stand for 1 hour at room temperature. […] In this system, HRP catalyzes a luminol-mediated chemiluminescent reaction which can be detected on a photographic film. […]

[7] = tested on: K562 cells; assay: activation of NK cell cytotoxicity against K562 target cells (LDH release); assay type: cell-based, human
Experimental: PBMC were recovered from buffy coats according to the procedure previously described in example 4.6. […] Cells were incubated under such conditions for 24 hours. K562 cells (human leukemia cell line, ATCC #CCL 243, 20110-2209 Manassas (Va.), U.S.A.) were maintained in culture using RPMI medium containing 10% FCS and subjected to 2 passages per week.
In order to make cytotoxicity measurement, PBMC and K562 cells were washed twice in HBSS and resuspended in Phenol Red-free RPMI medium containing 5% FCS. PBMC were divided into a round bottom 96-well plate so as to achieve a PBMC/target ratio of 20/1, 10/1 and 5/1 in 50 μl volume. 5000 K562 cells (target) were added in each well using 50 μl of Phenol Red-free RPMI. Final volume was 100 μl. The plate was centrifuged to promote contact then incubated at 37° C. for 4 hours.
Cytotoxicity was assayed using a non radioactive CytoTox 96 kit based on measuring LDH release during cell lysis (kit #G1780, batch #124100, Promega, Madison, Wis.) according to the supplier's instructions.
The percentage of cytotoxicity was calculated according to the following equation: […]

[8] = tested on: dendritic cells; assay: in vivo maturation and migration of dendritic cells into the spleen; design: species or system mice; conditions: i.v. 20 μg and s.c. 5 μg per mouse
Text: Immunostaining of histological slides taken from spleen of animals treated with products of the invention reveal colocalization of mature dendritic cells and T cells in the […], as is seen with LPS treatment, whereas in untreated animals, no migration and maturation are observed.

[9] = tested on: Limulus Amoebocyte Lysate
[10] = tested on: Leishmania LmCPb antigen; assay: Leishmania LmCPb immunization: lymph node cell proliferation (3H-TdR); assay type: in vivo, CBA mice; design: scale not given here
Experimental: as §2, §3, §4, §5, §6

Cc1cn([C@H]2C[C@H](N=[N+]=[N-])[C@@H](CO)O2)c(=O)[nH]c1=O [AZT, reference compound]
IC50 [1]: 2.9 nM | CC50 [2]: 187000 nM | IC50 [3]: 1.8 nM

Cc1cn([C@H]2C=C[C@@H](CO)O2)c(=O)[nH]c1=O [Example D4T, reference compound]
IC50 [1]: 107 nM | CC50 [2]: 321000 nM | IC50 [3]: 220 nM

CCCCCCCCCCCC(=O)O[C@H](CCCCCCCCCCC)CC(=O)NC(CCOP(=O)(O)O)C(=O)NCCCC(COC(=O)CCCCCN)NC(=O)C[C@H](O)CCCCCCCCCCC (stereo partly drawn) [OM-197-MP-AC, 3-[(R)-3-dodecanoyloxytetra-decanoylamino]-4-oxo-5-aza-9-[(R)-3-hydroxytetradecanoylamino]-1,10-diol-dihydrogenphosphate 10-(6-aminohexanoate)]
IL-4 production ([4]; No challenge): <8 pg/mL | IL-4 production ([4]; in vitro challenge Amastigotes, first pair of lines): 55 pg/mL and 70 pg/mL | IL-4 production ([4]; in vitro challenge Amastigotes, second pair of lines): 29 pg/mL and 28 pg/mL | IL-4 production ([4]; in vitro challenge Con A): 103 pg/mL and 102 pg/mL | IL-4 production ([4]; in vitro challenge LmCPb): 12 pg/mL and 13 pg/mL | 3H-TdR take-up ([5]; 0.1 μg/ml, incubation 1 day): 8.7 ± 0.7 CPM × 10^−3 | 3H-TdR take-up ([5]; 0.1 μg/ml, incubation 2 days): 21.1 ± 1.3 CPM × 10^−3 | 3H-TdR take-up ([5]; 1 μg/ml, incubation 1 day): 34.3 ± 2.6 CPM × 10^−3 | 3H-TdR take-up ([5]; 1 μg/ml, incubation 2 days): 55.6 ± 5.2 CPM × 10^−3 | increase of thymidine take-up ([5]; 1 μg/ml): 5 fold | 3H-TdR take-up ([5]; 10 μg/ml, incubation 1 day): 79.0 ± 12 CPM × 10^−3 | 3H-TdR take-up ([5]; 10 μg/ml, incubation 2 days): 92.7 ± 8.8 CPM × 10^−3 | increase of thymidine take-up ([5]; 10 μg/ml): 12 fold | production of MxA protein [6]: significant rise | NK activity level ([7]; 1 μg/ml): comparable or slightly inferior to that induced by LPS | % cytotoxicity ([7]; Ratio PBMC:K562 5.1): 7.4% | Optical density at 490 nm, K562 + PBMC ([7]; Ratio PBMC:K562 5.1): 1.5 | Optical density at 490 nm, PBMC alone ([7]; Ratio PBMC:K562 5.1): 0.027 | % cytotoxicity ([7]; Ratio PBMC:K562 10.1): 13.7% | Optical density at 490 nm, K562 + PBMC ([7]; Ratio PBMC:K562 10.1): 1.66 | Optical density at 490 nm, PBMC alone ([7]; Ratio PBMC:K562 10.1): 0.084 | % cytotoxicity ([7]; Ratio PBMC:K562 20.1): 22% | Optical density at 490 nm, K562 + PBMC ([7]; Ratio PBMC:K562 20.1): 1.8 | Optical density at 490 nm, PBMC alone ([7]; Ratio PBMC:K562 20.1, stimulus 24 hours): 0.084 | maturation and migration of dendritic cells in spleen [8]: induce maturation and migration of dendritic cells into the spleen | LAL EU/mg of product [9]: 6 EU/mg of product | LAL ng of LPS equivalent per mg of product [9]: 0.48 ng of LPS equivalent per mg of product | triturated thymidine take-up ([10]; adjuvant 50 μg s.c. with LmCPb, in vitro: No challenge): 0.7 ± 0.1 CPM | triturated thymidine take-up ([10]; in vitro challenge Amastigotes 2 ×10^−6/ml): 1.6 ± 0.3 CPM | triturated thymidine take-up ([10]; in vitro challenge Amastigotes 6 ×10^−6/ml): 5.3 ± 1.5 CPM | triturated thymidine take-up ([10]; in vitro challenge Amastigotes 17 ×10^−6/ml): 12.6 ± 2.5 CPM | triturated thymidine take-up ([10]; in vitro challenge Amastigotes 50 ×10^−6/ml): 32.6 ± 5.2 CPM | triturated thymidine take-up ([10]; in vitro challenge Con A 5 μg/ml): 208.5 ± 56.0 CPM | triturated thymidine take-up ([10]; in vitro challenge LmCPb 0.6 μg/ml): 1.3 ± 0.5 CPM | triturated thymidine take-up ([10]; in vitro challenge LmCPb 5 μg/ml): 3.0 ± 1.1 CPM | triturated thymidine take-up ([10]; in vitro challenge LmCPb 15 μg/ml): 7.0 ± 0.7 CPM
